{"source": "paper PMC10913730", "about": "“Antimicrobial activity of a natural compound and analogs against multi-drug-resistant Gram-positive pathogens” (Microbiology Spectrum, 2024)", "key": {"[1]": {"test_system": "MRSA isolates", "experiment": "MIC/MBC, CLSI broth microdilution, MRSA isolates", "type": "cell-based, Staphylococcus aureus", "conditions": "Staphylococcus aureus"}, "[2]": {"test_system": "MRSA isolate TCH 1516", "experiment": "Resistance acquisition during serial passage", "type": "cell-based, Staphylococcus aureus", "conditions": "for increase in MIC: serial passage", "experimental": "MRSA isolate TCH 1516 was grown to the stationary phase (OD650 = 1.0) in 10 mL of MH broth. […] The second highest drug concentration resulting in bacterial growth (OD650 >1.0) was used as the inoculum after a 1:1,000 dilution for subsequent steps, every 24 hours, for up to 21 days."}, "[3]": {"experiment": "pH and Ka of 10-g/L aqueous solutions (pH meter)", "type": "physicochemical", "conditions": "10-g/L solution in distilled, deionized water, room temperature"}, "[4]": {"conditions": "39 evaluated MRSA isolates, CLSI broth microdilution, read-out: MBC90"}, "[5]": {"conditions": "39 evaluated MRSA isolates, CLSI broth microdilution, read-out: MIC90"}, "[6]": {"conditions": "MRSA, pH 5.5, MRSA 0606, pH 5.5"}, "[7]": {"conditions": "MRSA, pH 5.5, MRSA 0608, pH 5.5"}, "[8]": {"conditions": "MRSA, pH 5.5, MRSA 0634, pH 5.5"}, "[9]": {"conditions": "MRSA, pH 5.5, MRSA 0641, pH 5.5"}, "[10]": {"conditions": "MRSA, pH 5.5, MRSA 0646, pH 5.5"}, "[11]": {"conditions": "MRSA, pH 6.5, MRSA 0606, pH 6.5"}, "[12]": {"conditions": "MRSA, pH 6.5, MRSA 0608, pH 6.5"}, "[13]": {"conditions": "MRSA, pH 6.5, MRSA 0634, pH 6.5"}, "[14]": {"conditions": "MRSA, pH 6.5, MRSA 0641, pH 6.5"}, "[15]": {"conditions": "MRSA, pH 6.5, MRSA 0646, pH 6.5"}, "[16]": {"conditions": "MRSA, pH 7.4, MRSA 0606, pH 7.4"}, "[17]": {"conditions": "MRSA, pH 7.4, MRSA 0608, pH 7.4"}, "[18]": {"conditions": "MRSA, pH 7.4, MRSA 0634, pH 7.4"}, "[19]": {"conditions": "MRSA, pH 7.4, MRSA 0641, pH 7.4"}, "[20]": {"conditions": "MRSA, pH 7.4, MRSA 0646, pH 7.4"}}, "note": "Read-outs that look alike come from different tables or passages of the source."}
{"smiles": "CC(=O)NC[C@H]1CN(c2ccc(N3CCOCC3)c(F)c2)C(=O)O1", "note": "[Linezolid, linezolid, reference compound]", "values": [{"measurement": "MBC", "setting": "[1]; [4]", "result": "> 32", "unit": "µg/mL"}, {"measurement": "MIC90", "setting": "[1]; [5]", "result": 4, "unit": "µg/mL"}, {"measurement": "increase in MIC", "setting": "[2]; after 21 days", "result": 16, "unit": "fold"}]}
{"smiles": "CCC[C@@H]1C[C@@H](C(=O)N[C@@H]([C@H]2O[C@H](SC)[C@H](O)[C@@H](O)[C@H]2O)[C@H](C)Cl)N(C)C1", "note": "[Clindamycin, clindamycin, reference compound]", "values": [{"measurement": "MBC", "setting": "[1]; [4]", "result": "> 32", "unit": "µg/mL"}, {"measurement": "MIC90", "setting": "[1]; [5]", "result": "> 32", "unit": "µg/mL"}, {"measurement": "MIC", "setting": "[2]; Staphylococcus aureus, MRSA, 408 h, read-out: MIC after serial passage", "result": 32, "unit": "µg/mL"}, {"measurement": "increase in MIC", "setting": "[2]; after 17 days", "result": 256, "unit": "fold"}]}
{"smiles": "[Li+].[Li+].[O-]c1c(Cl)cc(Cl)cc1-c1cc(Cl)cc(Cl)c1[O-]", "note": "[C59Li]", "values": [{"measurement": "pH of solution", "setting": "[3]", "result": "greater than 10"}, {"measurement": "MIC90", "setting": "[1]; MRSA, 39 evaluated MRSA isolates, CLSI broth microdilution", "result": 4, "unit": "µg/mL"}, {"measurement": "MBC", "setting": "[1]; [6]", "result": 0.25, "unit": "µg/mL"}, {"measurement": "MIC", "setting": "[1]; [6]", "result": 0.25, "unit": "µg/mL"}, {"measurement": "MBC", "setting": "[1]; [7]", "result": 0.25, "unit": "µg/mL"}, {"measurement": "MIC", "setting": "[1]; [7]", "result": 0.25, "unit": "µg/mL"}, {"measurement": "MBC", "setting": "[1]; [8]", "result": 0.25, "unit": "µg/mL"}, {"measurement": "MIC", "setting": "[1]; [8]", "result": 0.25, "unit": "µg/mL"}, {"measurement": "MBC", "setting": "[1]; [9]", "result": 0.25, "unit": "µg/mL"}, {"measurement": "MIC", "setting": "[1]; [9]", "result": 0.25, "unit": "µg/mL"}, {"measurement": "MBC", "setting": "[1]; [10]", "result": 0.25, "unit": "µg/mL"}, {"measurement": "MIC", "setting": "[1]; [10]", "result": 0.25, "unit": "µg/mL"}, {"measurement": "MBC", "setting": "[1]; MRSA, pH 5.5, TCH 1516, pH 5.5", "result": 0.25, "unit": "µg/mL"}, {"measurement": "MIC", "setting": "[1]; MRSA, pH 5.5, TCH 1516, pH 5.5", "result": 0.25, "unit": "µg/mL"}, {"measurement": "MBC", "setting": "[1]; MRSA, pH 5.5, read-out: Average MBC, average of six MRSA isolates, pH 5.5", "result": 0.25, "unit": "µg/mL"}, {"measurement": "MIC", "setting": "[1]; MRSA, pH 5.5, read-out: Average MIC, average of six MRSA isolates, pH 5.5", "result": 0.25, "unit": "µg/mL"}, {"measurement": "MBC", "setting": "[1]; [11]", "result": 1, "unit": "µg/mL"}, {"measurement": "MIC", "setting": "[1]; [11]", "result": 1, "unit": "µg/mL"}, {"measurement": "MBC", "setting": "[1]; [12]", "result": 2, "unit": "µg/mL"}, {"measurement": "MIC", "setting": "[1]; [12]", "result": 1, "unit": "µg/mL"}, {"measurement": "MBC", "setting": "[1]; [13]", "result": 1, "unit": "µg/mL"}, {"measurement": "MIC", "setting": "[1]; [13]", "result": 1, "unit": "µg/mL"}, {"measurement": "MBC", "setting": "[1]; [14]", "result": 6, "unit": "µg/mL"}, {"measurement": "MIC", "setting": "[1]; [14]", "result": 0.5, "unit": "µg/mL"}, {"measurement": "MBC", "setting": "[1]; [15]", "result": 1, "unit": "µg/mL"}, {"measurement": "MIC", "setting": "[1]; [15]", "result": 0.5, "unit": "µg/mL"}, {"measurement": "MBC", "setting": "[1]; MRSA, pH 6.5, TCH 1516, pH 6.5", "result": 1, "unit": "µg/mL"}, {"measurement": "MIC", "setting": "[1]; MRSA, pH 6.5, TCH 1516, pH 6.5", "result": 1, "unit": "µg/mL"}, {"measurement": "MBC", "setting": "[1]; MRSA, pH 6.5, read-out: Average MBC, average of six MRSA isolates, pH 6.5", "result": 2, "unit": "µg/mL"}, {"measurement": "MIC", "setting": "[1]; MRSA, pH 6.5, read-out: Average MIC, average of six MRSA isolates, pH 6.5", "result": 0.83, "unit": "µg/mL"}, {"measurement": "MBC", "setting": "[1]; [16]", "result": 2, "unit": "µg/mL"}, {"measurement": "MIC", "setting": "[1]; [16]", "result": 1, "unit": "µg/mL"}, {"measurement": "MBC", "setting": "[1]; [17]", "result": 6, "unit": "µg/mL"}, {"measurement": "MIC", "setting": "[1]; [17]", "result": 2, "unit": "µg/mL"}, {"measurement": "MBC", "setting": "[1]; [18]", "result": 2, "unit": "µg/mL"}, {"measurement": "MIC", "setting": "[1]; [18]", "result": 2, "unit": "µg/mL"}, {"measurement": "MBC", "setting": "[1]; [19]", "result": 4, "unit": "µg/mL"}, {"measurement": "MIC", "setting": "[1]; [19]", "result": 2, "unit": "µg/mL"}, {"measurement": "MBC", "setting": "[1]; [20]", "result": 4, "unit": "µg/mL"}, {"measurement": "MIC", "setting": "[1]; [20]", "result": 1, "unit": "µg/mL"}, {"measurement": "MBC", "setting": "[1]; MRSA, pH 7.4, TCH 1516, pH 7.4", "result": 2, "unit": "µg/mL"}, {"measurement": "MIC", "setting": "[1]; MRSA, pH 7.4, TCH 1516, pH 7.4", "result": 2, "unit": "µg/mL"}, {"measurement": "MBC", "setting": "[1]; MRSA, pH 7.4, read-out: Average MBC, average of six MRSA isolates, pH 7.4", "result": 3.3, "unit": "µg/mL"}, {"measurement": "MIC", "setting": "[1]; MRSA, pH 7.4, read-out: Average MIC, average of six MRSA isolates, pH 7.4", "result": 1.7, "unit": "µg/mL"}, {"measurement": "MBC", "setting": "[1]; MRSA, read-out: MBC90, 39 evaluated MRSA isolates, CLSI broth microdilution", "result": 4, "unit": "µg/mL"}]}
